Values quoted from earlier work in article PMC4306510 (Bioconjugate Chemistry, 2014).

Conditions: in 0.1 M aqueous NaOH

- quantum yield of the standard: 95%
Structure (SMILES): O=C(O)c1ccc2c(c1)C(=O)OC21c2ccc(O)cc2Oc2cc(O)ccc21 [5-carboxy fluorescein]
